Measurements taken from US11840686B2, “Modulation of prekallikrein (PKK) expression” (Ionis Pharmaceuticals, Inc., priority 2013, dated 2023).
Strand notation (5' to 3'): a small letter for the sugar, then the base; units joined by * are phosphorothioate-linked, units joined directly phosphodiester-linked; [ ] holds rarer units or linkages, { } end groups; capitals alone tell only the bases. e = 2'-O-(2-methoxyethyl) (MOE); [5mC] = 5-methylcytosine; d = 2'-deoxy (DNA)

What was measured:
human PKK mRNA [1] = experiment: Antisense inhibition of human PKK mRNA in HepaRG cells, 5,000 nM (Example 2); type: cell-based
Method in brief: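 qRT-PCR (RTS3454) read-out, RIBOGREEN-normalized; % inhibition vs untreated cells. HepaRG, 20,000 cells/well, electroporation, 5,000 nM ASO, ~24 h.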

human PKK mRNA [2] = experiment: Dose-dependent antisense inhibition of human PKK in HepaRG cells, 0.19-5.00 uM (Example 5); type: cell-based
Method in brief: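 PKK mRNA knockdown was measured by real-time PCR (primer probe set RTS3454) about 16 h after electroporating 20,000 HepaRG cells per well with oligonucleotide at four doses from 0.19 to 5.00 μM. Levels were adjusted to RIBOGREEN-measured total RNA, and IC50 values were calculated.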

[3] = HepaRG cells, electroporation, approximately 16 hours, Table 41
[4] = 4 point dose response, HepaRG cells, Table 41
[5] = Table 34, HepaRG, electroporation, ~16 h
[6] = Table 34, PKK mRNA, HepaRG, electroporation, ~16 h
[7] = HepaRG cells, electroporation, approximately 16 hours, Table 38
[8] = 4 point dose response, HepaRG cells, Table 38
[9] = human PKK mRNA in HepaRG cells, 5-10-5 gapmers, Table 14
[10] = HepaRG cells, electroporation, approximately 16 hours, Table 39
[11] = HepaRG cells, electroporation, approximately 16 hours, Table 40
[12] = HepaRG cells, electroporation, approximately 16 hours, Table 36
[13] = HepaRG cells, electroporation, approximately 16 hours, Table 37

## 547564 (e[5mC]*e[5mC]*e[5mC]*eT*e[5mC]*dT*dG*dT*d[5mC]*dT*dT*dA*dG*dA*dT*eG*eT*e[5mC]*e[5mC]*eA; antisense) [compound 547564]
Human PKK mRNA [1]; Table 13, human PKK mRNA in HepaRG cells, 5-10-5 gapmers
  % inhibition: 94%
Human PKK mRNA [2]; [3]
  percent inhibition of PKK at 5.00 μM: 97%
  percent inhibition of PKK at 0.19 0μM: 46%
  percent inhibition of PKK at 0.56 0μM: 66%
  percent inhibition of PKK at 1.67 1μM: 90%
Human PKK mRNA [2]; [4]
  IC50: 0.2 µM
Human PKK mRNA [2]; [5]
  percent inhibition of PKK at 0.19 μM: 51%
  percent inhibition of PKK at 0.56 μM: 48%
  percent inhibition of PKK at 1.67 μM: 82%
  percent inhibition of PKK at 5.00 μM: 90%
Human PKK mRNA [2]; [6]
  IC50: 0.2 µM

## 547337 (antisense eA*eA*e[5mC]*eT*e[5mC]*d[5mC]*dT*dT*dT*dA*dT*dA*dA*dA*dT*eG*eT*e[5mC]*eT*e[5mC]) [compound 547337]
Human PKK mRNA [1]; HepaRG cells, electroporation with 5,000 nM antisense oligonucleotide, approximately 24 hours, PKK mRNA by RT-PCR (RTS3454), relative to untreated control cells, Table 6 experiment
  % inhibition: 84%
Human PKK mRNA [2]; [7]
  percent inhibition of PKK at 0.19 μM: 23%
  percent inhibition of PKK at 0.56 μM: 41%
  percent inhibition of PKK at 1.67 μM: 55%
  percent inhibition of PKK at 5.00 μM: 79%
Human PKK mRNA [2]; [8]
  IC50: 1 µM

## 546853 (eA*e[5mC]*eA*eG*eT*dA*dT*d[5mC]*dA*d[5mC]*dT*dG*dT*d[5mC]*d[5mC]*eT*eA*eT*eA*eT; antisense) [compound 546853]
Human PKK mRNA [1]; [9]
  % inhibition: 86%
Human PKK mRNA [2]; [10]
  percent inhibition of PKK at 0.19 μM: 47%
  percent inhibition of PKK at 0.56 μM: 64%
  percent inhibition of PKK at 1.67 μM: 84%
Human PKK mRNA [2]; 4 point dose response, HepaRG cells, Table 39
  IC50: 0.2 µM
Human PKK mRNA [2]; HepaRG cells, 0.19 μM antisense oligonucleotide
  percent inhibition of PKK mRNA, 0.19 μM: 4%
Human PKK mRNA [2]; HepaRG cells, 0.56 μM antisense oligonucleotide
  percent inhibition of PKK mRNA, 0.56 μM: 49%
Human PKK mRNA [2]; HepaRG cells, 1.67 μM antisense oligonucleotide
  percent inhibition of PKK mRNA, 1.67 μM: 74%
Human PKK mRNA [2]; HepaRG cells, 5.00 μM antisense oligonucleotide
  percent inhibition of PKK mRNA, 5.00 μM: 92%
Human PKK mRNA [2]; HepaRG cells, 0.19-5.00 μM
  IC50: 0.8 µM

## 547514 (antisense eA*eG*eA*eT*eG*d[5mC]*d[5mC]*dA*d[5mC]*dT*d[5mC]*dT*d[5mC]*d[5mC]*dA*eT*eG*e[5mC]*eT*eT) [compound 547514]
Human PKK mRNA [1]; HepaRG cells, electroporation, 5,000 nM antisense oligonucleotide, approx. 24 hours, primer probe set RTS3454, relative to untreated control cells, Table 11
  % inhibition: 85%
Human PKK mRNA [2]; [7]
  percent inhibition of PKK at 0.19 μM: 18%
  percent inhibition of PKK at 0.56 μM: 8%
  percent inhibition of PKK at 1.67 μM: 51%
  percent inhibition of PKK at 5.00 μM: 80%
Human PKK mRNA [2]; [8]
  IC50: 1.9 µM

## 547009 (eA*eA*eT*eT*eG*dG*dT*dG*dG*dT*dG*dG*dG*dA*dT*eT*eG*eG*eT*eG; antisense) [compound 547009]
Human PKK mRNA [1]; HepaRG cells, 5,000 nM antisense oligonucleotide, 5-10-5 gapmers, Table 17
  % inhibition: 73%
Human PKK mRNA [2]; [11]
  percent inhibition of PKK at 0.19 μM: 0%
  percent inhibition of PKK at 0.56 μM: 9%
  percent inhibition of PKK at 1.67 μM: 21%
  percent inhibition of PKK at 5.00 μM: 63%
Human PKK mRNA [2]; 4 point dose response, HepaRG cells, Table 40
  IC50: 3.6 µM

## 548758 (antisense e[5mC]*eA*eG*eT*dA*dT*d[5mC]*dA*d[5mC]*dT*dG*dT*dA*e[5mC]*eT*eA*eG) [compound 548758]
Human PKK mRNA [1]; human PKK mRNA, HepaRG cells, 5,000 nM antisense oligonucleotide, Table 18
  % inhibition: 97%
Human PKK mRNA [2]; [3]
  percent inhibition of PKK at 0.19 0μM: 0%
  percent inhibition of PKK at 0.56 0μM: 72%
  percent inhibition of PKK at 1.67 1μM: 79%
Human PKK mRNA [2]; [4]
  IC50: 0.6 µM
Human PKK mRNA [2]; [5]
  percent inhibition of PKK at 0.19 μM: 41%
  percent inhibition of PKK at 0.56 μM: 47%
  percent inhibition of PKK at 1.67 μM: 82%
  percent inhibition of PKK at 5.00 μM: 94%
Human PKK mRNA [2]; [6]
  IC50: 0.4 µM

## 546903 (e[5mC]*e[5mC]*eT*eA*eT*dA*dT*d[5mC]*dA*d[5mC]*dT*dG*dT*dA*d[5mC]*e[5mC]*eT*eA*eT*eA; antisense) [compound 546903]
Human PKK mRNA [1]; human PKK mRNA, HepaRG cells, 5-10-5 motif oligonucleotides targeting SEQ ID NO: 1 and 10
  % inhibition: 91%
Human PKK mRNA [2]; [12]
  percent inhibition of PKK at 0.19 μM: 15%
  percent inhibition of PKK at 0.56 μM: 37%
  percent inhibition of PKK at 1.67 μM: 74%
  percent inhibition of PKK at 5.00 μM: 98%
Human PKK mRNA [2]; 4 point dose response, HepaRG cells, Table 36
  IC50: 0.8 µM

## 546855 (eA*eT*eA*eA*e[5mC]*dA*dG*dT*dA*dT*d[5mC]*dA*d[5mC]*dT*dG*eT*e[5mC]*e[5mC]*eT*eA; antisense) [compound 546855]
Human PKK mRNA [1]; [9]
  % inhibition: 87%
Human PKK mRNA [2]; [13]
  percent inhibition of PKK at 0.19 μM: 18%
  percent inhibition of PKK at 0.56 μM: 7%
  percent inhibition of PKK at 1.67 μM: 30%
  percent inhibition of PKK at 5.00 μM: 82%
Human PKK mRNA [2]; 4 point dose response, HepaRG cells, Table 37
  IC50: 2.2 µM
